“Also recorded” adds a separate entry of the source. Read-outs that look alike come from different tables or passages of the source. Where a SMILES comes first, the peptide text is derived from it. Bridges are numbered along the chain shown (N, C = ends). [ ]: non-standard residue; d: D form. d2Nal = N[C@H](Cc1ccc2ccccc2c1)C(=O)O; Nle = CCCC[C@H](N)C(=O)O; Ahx = NCCCCCC(=O)O; βAla = NCCC(=O)O
Assays:
[1] = target: T1, delta opioid receptor (DOR) (Rattus norvegicus, UniProt P33533); experiment: Competitive radioligand binding, [3H][Ile5,6]DELT II, rat brain homogenate; conditions: three determinations in duplicate, read-out: Affinity DOR IC50 ± SD
T1 construct: The determinations for opioid receptors were performed in rat brain homogenates; from tissue; host or cells: rat brain homogenate (membrane fraction)
T1 sequence (P33533 whole entry): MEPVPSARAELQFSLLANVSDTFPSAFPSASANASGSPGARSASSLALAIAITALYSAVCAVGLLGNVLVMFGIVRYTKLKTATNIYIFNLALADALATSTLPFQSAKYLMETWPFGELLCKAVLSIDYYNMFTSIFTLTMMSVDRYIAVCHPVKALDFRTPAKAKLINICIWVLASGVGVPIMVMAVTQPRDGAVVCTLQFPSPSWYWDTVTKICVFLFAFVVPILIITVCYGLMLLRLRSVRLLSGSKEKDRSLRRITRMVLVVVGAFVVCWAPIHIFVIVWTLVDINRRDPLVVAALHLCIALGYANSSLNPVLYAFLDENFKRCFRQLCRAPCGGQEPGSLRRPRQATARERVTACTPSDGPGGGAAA
Method: (§1) The determinations for opioid receptors were performed in rat brain homogenates by competitive displacement using selective radioligands, namely [^3H]DAMGO (a radioligand specific for MOR) and [^3H][Ile^5,6]DELT II (a radioligand specific for DOR). The measurement for melanocortin receptor MC4 was performed with the use of HEK293 MC4R cells and [^125I]-NDP-α-MSH radioligand.
(§2) The binding affinity of peptidomimetics 1–9 and reference compoundsTyr-D-Ala-Gly-Phe-NH2 for MOR and DOR was determined in competitive radioligand binding assays according to the method previously described. The specific radioligands were [^3H]DAMGO (DAMGO (a specific MOR ligand) and [^3H][Ile^5,6]DELT II]) (a specific DOR ligand). Membrane fractions of rat brain homogenate were incubated at 25 °C for 60 min in the presence of radioligands (0.5 nM) specific for each receptor and the increasing concentrations of the tested compounds. For measuring non-specific binding, 10 μM naloxone was used as the competitor for opioid receptors. The reactions were carried out in assay buffer containing Tris-HCl (pH 7.4) with an addition of bovine serum albumin (BSA) and protease inhibitors (bacitracin, bestatin, captopril). After the incubation, the binding reactions were terminated by rapid filtration with M-24 Cell Harvester (Brandel/USA) through GF/B Whatman glass fiber strips (pre-soaked with 0.5% PEI in order to minimize non-specific binding). Radioactivity retained on the filters was measured in MicroBeta LS, Trilux scintillation counter (PerkinElmer, USA). The experiments were repeated at least three times in duplicate. The IC50 value for each compound was determined using GraphPad Prism.

mu opioid receptor (MOR) = target: T2, mu opioid receptor (MOR) (Rattus norvegicus, UniProt P33535); experiment: Competitive radioligand binding, [3H]DAMGO, rat brain homogenate; conditions: for IC50: [3H]DAMGO, rat brain homogenate, three determinations in duplicate, read-out: Affinity MOR IC50 ± SD; for Selectivity MOR/DOR: calculated as ratio of IC50 values
T2 construct: The determinations for opioid receptors were performed in rat brain homogenates; from tissue; host or cells: rat brain homogenate (membrane fraction)
T2 sequence (P33535 whole entry): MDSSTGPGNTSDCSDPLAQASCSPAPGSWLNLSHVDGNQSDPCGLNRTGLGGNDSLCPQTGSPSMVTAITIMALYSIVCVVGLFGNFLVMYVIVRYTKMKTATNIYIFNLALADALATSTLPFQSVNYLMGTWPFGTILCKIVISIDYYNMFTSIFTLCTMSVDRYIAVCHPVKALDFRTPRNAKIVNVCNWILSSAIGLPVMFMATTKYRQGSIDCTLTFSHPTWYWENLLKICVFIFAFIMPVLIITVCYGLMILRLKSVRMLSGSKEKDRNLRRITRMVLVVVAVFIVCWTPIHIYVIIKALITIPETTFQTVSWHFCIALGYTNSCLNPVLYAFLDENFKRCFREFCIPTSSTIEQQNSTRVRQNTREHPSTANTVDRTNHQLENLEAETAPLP
Method: as §1, §2

[2] = Experimental lipophilicity (P, log P); type: physicochemical
Description: We also studied experimentally the lipophilicity of the compounds 1–4. The obtained logP values vary only moderately (in the range −2.30 to −2.92, Table S2) and cannot account for the large differences in the antinociceptive activity. It seems then that the lipophilicity is not a factor responsible for the in vivo activity differences.

[3] = target: melanocortin-4 receptor (MC4R) (Homo sapiens, UniProt P32245); experiment: Radioligand competitive binding, [125I]-NDP-α-MSH, HEK293 MC4R cells; conditions: for IC50: [125I]-NDP-α-MSH, HEK293 MC4R cells, average of two assays in duplicates, read-out: Affinity MC4R IC50 ± SD; for Selectivity MC4R/DOR: calculated as ratio of IC50 values
Sequence of melanocortin-4 receptor (MC4R) (P32245 whole entry): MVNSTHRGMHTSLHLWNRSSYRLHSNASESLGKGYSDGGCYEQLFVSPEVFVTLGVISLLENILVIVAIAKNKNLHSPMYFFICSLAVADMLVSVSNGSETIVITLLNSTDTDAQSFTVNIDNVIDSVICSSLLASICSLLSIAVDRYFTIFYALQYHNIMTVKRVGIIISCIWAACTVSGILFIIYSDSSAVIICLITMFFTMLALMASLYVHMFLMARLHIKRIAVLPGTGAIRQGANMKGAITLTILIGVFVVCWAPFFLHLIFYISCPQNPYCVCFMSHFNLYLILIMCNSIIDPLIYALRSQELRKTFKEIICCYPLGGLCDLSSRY
Method: as §1
HEK293 MC4R were cultured in Earle’s Minimum Essential Medium (EMEM) supplemented with 10% heat inactivated fetal bovine serum (FBS). Cultures were grown under the humidified atmosphere of 5% CO2 in the air at 37 °C, up to 80% settlement of the bottle surface.
HEK293 MC4R cells were seeded around 10^5 cell/well in a 24-well plates two days before the experiment. Just before experiment, cells were washed twice with 0.5 mL of binding buffer (EMEM supplemented with 25 mM HEPES buffer, 0.2% bovine serum albumin, 1 mM 1,10-phenanthroline, 0.5 mg/L leupeptin and 200 mg/L bacitracin). […] The competition between ligands was ended by gentle withdrawal of medium solution, followed by cell washing with 2 × 0.5 mL of cold binding buffer, while the attached cells were lysed using 2 × 0.5 mL of 1 M NaOH. The radioactivity of collected solutions were measured on WIZARD^2 2480 Automatic Gamma Counter (PerkinElmer, Boston, MA, USA) in measurements with decay correlation protocol. All binding parameters were determined using GraphPad Prism Software (GraphPad Software Inc., San Diego, CA, USA). The competition assay determination was based on the normalized dose response in function of logarithm of inhibitor concentration (with variable slope) equation. All the EC50 values were calculated as an average of two separate competition assays performed in duplicates.

[4] = system: mice subjected to CCI (neuropathic pain); experiment: Cold plate test in CCI-exposed mice (neuropathic pain, hyperalgesia); type: in vivo; conditions: 7–14 days after CCI, i.t. administration, 95% confidence limits
Method: (§3) The antinociceptive properties of the peptidomimetics 1–9 were assessed in two types of pain models. The first one included naive mice (acute pain), and the second one included mice exposed to chronic constriction injury (CCI, neuropathic pain model). In the latter of the models, two types of stimuli (mechanical pressure and low temperature) were considered. […] In naive mice, the tail-flick test was used to evaluate the analgesic effect (acute pain model). In CCI-exposed mice, hypersensitivity to mechanical and thermal stimuli was measured by von Frey and cold-plate tests, respectively.
(§4) The surgical procedure was performed according to Bennett and Xie. Under isoflurane anesthesia, an incision was made below the mouse’s right hipbone, and the sciatic nerve was exposed. Three ligatures with 4/0 silk thread were made around the nerve distal to the sciatic notch with 1 mm spacing, until a brief twitch in the respective hind limb was observed. After 7 days of recovery, mice were tested to assess the development of neuropathic pain behavior. […] Main experiments were conducted on days 7–14 after CCI surgical procedure.
Sensitivity to noxious thermal stimuli was assessed with usage of Cold/Hot Plate Analgesia Meter, (Ugo Basile, Comerio, Italy). The temperature of the plate was kept at 2 °C, and the cut-off latency was 30 s. The mice were placed on the cold plate, and the time until the hind paw was lifted was recorded, which was considered as a reaction to noxious cold stimulus.
(§5) The behavioral data are presented as the percentage of the maximal possible antinociceptive effect (% MPE ± SEM), which was calculated according to the following equation: % MPE = [(TL − BL)/(CUT-OFF − BL)] × 100%, where BL is the baseline latency, and TL is the latency obtained after drug injection. The results of the experiments were statistically evaluated using one-way analysis of variance (ANOVA). The differences between the treatment groups throughout the study were further analyzed with Bonferroni post hoc tests. The Litchefield and Wilcoxon method was used to calculate the ED50 value (a dose necessary to produce a 50% response) with 95% confidence limits on quantal data.

[5] = system: mice subjected to CCI (neuropathic pain); experiment: Von Frey test in CCI-exposed mice (neuropathic pain, allodynia); type: in vivo; conditions: for ED50 (CL) Mice Subjected to CCI (Neuropathic Pain) Von Frey (Allodynia): 7–14 days after CCI, i.t. administration, 95% confidence limits
Method: as §3, §4
Mechanical sensitivity to non-noxious stimuli was measured by applying a set of calibrated nylon monofilaments in increasing value (0.6–6 g; Stoelting, Wood Dale, IL, USA) on a tested hind paw plantar surface, until a behavioral response was observed. Response considered as pain behavior included rapid paw withdrawal, shaking, and licking. In the von Frey test, results are expressed as pressure (g) applied with a calibrated plastic filament to the midplantar surface of the mouse’s injured hind paw (cut-off: 6 g), which elicited a foot withdrawal response.
as §5

naive mice (acute pain) = experiment: Tail-flick test in naive mice (acute pain model); type: in vivo; conditions: for ED50 (CL) Naive Mice (Acute Pain) Tail-Flick: i.t. administration, 95% confidence limits; for analgesic effect in naive mice (acute pain), in words / ED50 Naive Mice (Acute Pain) Tail-Flick, class symbol: i.t.
Method: as §3
The tail-flick test was performed with use of Tail-Flick Analgesic Meter (Ugo Basile, Comerio, Italy) to evaluate the pain threshold to a thermal stimulus. During the procedure, an animal was placed on the apparatus surface and gently held by the experimenter. A beam of light was focused on a dorsal tail surface, approximately at 1 cm from the tail tip. When the animal flicked its tail, the timer stopped, and the recorded time (latency) was measured. The cut-off time to protect tissue damage was 9 s.
as §5

| Compound | IC50 [1] [nM] | IC50 (mu opioid receptor (MOR)) [nM] | Selectivity MOR/DOR (mu opioid receptor (MOR)) | logP ([2]; read-out: Lipophilicity Log P) | logP ([2]; read-out: Lipophilicity P) | IC50 [3] [nM] | Selectivity MC4R/DOR [3] | ED50 (CL) Mice Subjected to CCI (Neuropathic Pain) Cold Plate (Hyperalgesia) [4] | ED50 (CL) Mice Subjected to CCI (Neuropathic Pain) Von Frey (Allodynia) [5] | ED50 (CL) Naive Mice (Acute Pain) Tail-Flick (naive mice (acute pain)) | analgesic effect in CCI-exposed mice, in words ([5]; CCI mice, von Frey and cold plate tests, i.t.) | analgesic effect in naive mice (acute pain), in words (naive mice (acute pain)) | ED50 Naive Mice (Acute Pain) Tail-Flick, class symbol (naive mice (acute pain)) |
| --- | --- | --- | --- | --- | --- | --- | --- | --- | --- | --- | --- | --- | --- |
| CCCC[C@H](NC(=O)[C@@H](C)NC(=O)[C@H](Cc1ccccc1)NC(=O)CNC(=O)[C@@H](C)NC(=O)[C@@H](N)Cc1ccc(O)cc1)C(=O)N[C@H]1CC(=O)NCCCC[C@@H](C(N)=O)NC(=O)[C@H](Cc2c[nH]c3ccccc23)NC(=O)[C@H](CCCNC(=N)N)NC(=O)[C@@H](Cc2ccc3ccccc3c2)NC(=O)[C@H](Cc2c[nH]cn2)NC1=O [Compound 1, ENK-D-Ala-SHU] (H-Y[dA]GF[dA][Nle]DH[d2Nal]RWK-NH2; lactam 7-12) | 14.5 ± 1.91 | 69.6 ± 18.7 | 0.2 | -2.3 ± 0.02 | -2.3 | 0.07 ± 0.01 | 207 |  |  |  |  |  |  |
| CCCC[C@H](NC(=O)CCCCCNC(=O)CCCCCNC(=O)[C@H](Cc1ccccc1)NC(=O)CNC(=O)[C@@H](C)NC(=O)[C@@H](N)Cc1ccc(O)cc1)C(=O)N[C@H]1CC(=O)NCCCC[C@@H](C(N)=O)NC(=O)[C@H](Cc2c[nH]c3ccccc23)NC(=O)[C@H](CCCNC(=N)N)NC(=O)[C@@H](Cc2ccc3ccccc3c2)NC(=O)[C@H](Cc2c[nH]cn2)NC1=O [Compound 4, ENK-(Ahx)2-SHU] (H-Y[dA]GF[Ahx][Ahx][Nle]DH[d2Nal]RWK-NH2; lactam 8-13) | 22.3 ± 12.7 | 5.47 ± 1.38 | 4.1 | -2.92 ± 0.02 | -2.92 | 0.5 ± 0.16 | 45 | 0.1 (0.004–3.4) nmol | 0.01 (0.00002–7.8) nmol |  |  |  |  |
| ENK-(Pro-Gly)2-SHU [Compound 8] |  |  |  |  |  |  |  |  |  | 5 (0.4–60.3) nmol | any analgesic effect was not observed; also recorded: very little if any activity |  |  |
| ENK-4APhAc-SHU [Compound 6] |  |  |  |  |  |  |  | 0.02 (0.0005–1.2) nmol | 0.02 (0.0002–1.03) nmol | 42 (21–85) nmol |  | some analgesic activity |  |
| CCCC[C@H](NC(=O)CCNC(=O)[C@H](Cc1ccccc1)NC(=O)CNC(=O)[C@@H](C)NC(=O)[C@@H](N)Cc1ccc(O)cc1)C(=O)N[C@H]1CC(=O)NCCCC[C@@H](C(N)=O)NC(=O)[C@H](Cc2c[nH]c3ccccc23)NC(=O)[C@H](CCCNC(=N)N)NC(=O)[C@@H](Cc2ccc3ccccc3c2)NC(=O)[C@H](Cc2c[nH]cn2)NC1=O [Compound 2, ENK-β-Ala-SHU] (H-Y[dA]GF[βAla][Nle]DH[d2Nal]RWK-NH2; lactam 7-12) | 22.8 ± 7.49 | 104 ± 29.1 | 0.2 | -2.33 ± 0.02 | -2.33 | 0.12 ± 0.01 | 190 | 142 (31–654) nmol | 0.04 (0.03–0.68) nmol | 58.8 (27–128) nmol |  |  |  |
| CCCC[C@H](NC(=O)CCCCCNC(=O)[C@H](Cc1ccccc1)NC(=O)CNC(=O)[C@@H](C)NC(=O)[C@@H](N)Cc1ccc(O)cc1)C(=O)N[C@H]1CC(=O)NCCCC[C@@H](C(N)=O)NC(=O)[C@H](Cc2c[nH]c3ccccc23)NC(=O)[C@H](CCCNC(=N)N)NC(=O)[C@@H](Cc2ccc3ccccc3c2)NC(=O)[C@H](Cc2c[nH]cn2)NC1=O [Compound 3, ENK-Ahx-SHU] (H-Y[dA]GF[Ahx][Nle]DH[d2Nal]RWK-NH2; lactam 7-12) | 45.4 ± 32.3 | 64 ± 34.6 | 0.7 | -2.43 ± 0.01 | -2.43 | 1.83 ± 0.81 | 25 |  | 0.0002 (0.00005–0.001) nmol |  |  |  |  |
| ENK-4AMB-SHU [Compound 5] |  |  |  |  |  |  |  | 0.16 (0.1–0.2) nmol | 0.02 (0.005–0.5) nmol |  |  | lack of analgesic effect |  |
| ENK-Pro-Gly-SHU [Compound 7] |  |  |  |  |  |  |  | 0.16 (0.07–0.34) nmol | 0.4 (0.3–0.6) nmol |  |  | impossible to calculate ED50 due to weak analgesic effect and poor dose dependency | # (weak analgesic effects, poor dose dependency, ED50 cannot be calculated) |
| [Dmt^1]ENK-Ahx-SHU [Compound 9] |  |  |  |  |  |  |  | 0.009 (0.005–0.01) nmol | 0.003 (0.000003–3.45) nmol |  |  | impossible to calculate ED50 due to weak analgesic effect and poor dose dependency | # (weak analgesic effects, poor dose dependency, ED50 cannot be calculated) |
